Consider one compound from patent US20060112439A1, “Delta opioid receptor disruptions, compositions and methods related thereto” (priority 2001, published 2006).

The structures appear in SMILES notation.

For the assay, the system named is mice (F2N1 wild-type and delta-opioid receptor homozygous mutant). The assay is described as follows: Metrazol Test (seizure susceptibility; tail vein infusion of pentylenetetrazole). The note with it: n=10, about 5 mg/ml infused via tail vein at about 0.375 ml/min. Type of assay: in vivo, mouse. As to the method:
A metrazol administration test can be used to screen animals for varying susceptibilities to seizures or similar events. For example, a 5 mg/ml solution of metrazol can be infused through the tail vein of a mouse at a rate of, e.g., approximately 0.375 ml/min. The infusion will cause all mice to experience seizures, followed by death. Those mice that enter the seizure stage the soonest are believed to be more prone to seizures.
To screen for phenotypes involving changes in seizure susceptibility, the Metrazol Test was be used. About 5 mg/ml of Metrazol was infused through the tail vein of the mouse at a constant rate of about 0.375 ml/min. The infusion caused all mice to experience seizures. Those mice entering the seizure stage the quickest were thought to be more prone to seizures in general.
The Metrazol test can also be used to screen for phenotypes related to epilepsy. Ten adult F2N1 wild-type control male mice and ten F2N1 homozygous mutant males were used, all derived from the same ES cell line. A fresh solution of about 5 mg/ml pentylenetetrazole in approximately 0.9% NaCl was prepared prior to testing. Mice were weighed and loosely held in a restrainer. After exposure to a heat lamp to dilate the tail vein, mice were continuously infused with the pentylenetetrazole solution using a syringe pump set at a constant flow rate. The following stages were recorded: first twitch (sometimes accompanied by a squeak), beginning of the tonic/clonic seizure, tonic extension and survival time. The dose required for each phase was determined and the latency to each phase was determined between genotypes. Alterations in any stage may indicate an overall imbalance in excitatory or inhibitory neurotransmitter levels.

The mark [1] stands for this setting: F2N1 delta-opioid receptor homozygous mutant (−/−) male mice.

Take `C1CCc2nnnn2CC1` [metrazol, pentylenetetrazole]: under setting [1], the “Dose (average ± std dev) to death” value turned out to be 121.96 ± 31.09 mg/kg, the “Dose (average ± std dev) to first twitch” value amounted to 30.97 ± 5.20 mg/kg, the “Dose (average ± std dev) to tonic extension” value was 97.59 ± 32.27 mg/kg and the “Dose (average ± std dev) to tonic/clonic seizure” value was 53.48 ± 12.44 mg/kg. Also, for the setting “F2N1 wild-type (+/+) male mice”, the “Dose (average ± std dev) to death” value came out at 181.91 ± 83.20 mg/kg, the “Dose (average ± std dev) to first twitch” value is given as 28.23 ± 5.58 mg/kg, the “Dose (average ± std dev) to tonic extension” value is listed as 126.54 ± 23.60 mg/kg and the “Dose (average ± std dev) to tonic/clonic seizure” value amounted to 39.62 ± 8.21 mg/kg.
